We go through 18 compounds from ChEMBL document CHEMBL1150533, “Inhibitors of the adenovirus type 2 proteinase based on substrate-like tetrapeptide nitriles” (Bioorg Med Chem Lett, 1995).

Peptide text beside a SMILES is read from it. * marks the point of attachment. Cbz = O=C(OCc1ccccc1)*; Boc = CC(C)(C)OC(=O)*; N(Me)OMe = CON(C)*; OtBu = CC(C)(C)O*; NMeEt = CCN(C)*

Type in all cases: functional
For experiment [1], the system named is Human adenovirus 2. As to the kind of experiment: Compound was tested for inhibition of Adenovirus type 2 proteinase. The settings on record: Human mastadenovirus C.
In experiment [2] the test system is Human adenovirus 2. The experiment is described as follows: Inhibitory activity against Adenovirus type 2 proteinase. The arrangement: concentration or dose not given beside the values.
The test system of experiment [3] is Human adenovirus 2. The experiment is described as follows: Compound was tested for noncompetitive inhibition of Adenovirus type 2 proteinase.
The test system of experiment [4] is Human adenovirus 2. The experiment is described as follows: Compound was tested for inhibition of Adenovirus type 2 proteinase; showed no inhibitory activity. Also on record: concentration or dose not given beside the values.
The test system of experiment [5] is Human adenovirus 2. The experiment is described as follows: Compound was tested for inhibition of Adenovirus type 2 proteinase; Not very soluble and inactive at maximum soluble concentration.
Experiment [6] has as its system Human adenovirus 2. As to the kind of experiment: Inhibitory activity against Adenovirus type 2 proteinase; showed no inhibitory activity.

For `CC(C)C[C@H](NC(=O)C(F)(F)F)C(=O)N[C@@H](C)C(=O)NCC(=O)NCC#N`, the midpoint of inhibition with Human adenovirus 2 [1], the IC50, lay at 6900 µM. Moreover, the Inhibition (in general, the percentage by which the read-out fell short of the control) with Human adenovirus 2 [2] was found to be 50%.
On to `CC(C)C[C@H](NC(=O)OCc1ccccc1)C(=O)N[C@@H](C)C(=O)NCC(=O)NCC#N`, for which the IC50 (as a rule, the point on the concentration scale where inhibition reaches its midpoint) in the experiment with Human adenovirus 2 [1] turned out to be 10 µM. In the experiment on Human adenovirus 2 [2], the Inhibition is recorded as 95%. The Ki (commonly the equilibrium dissociation constant of an inhibitor or competing ligand from its target) in the experiment with Human adenovirus 2 [3] came to 16 µM.
Turning to `COC(CNC(=O)CNC(=O)[C@H](C)NC(=O)[C@H](CC(C)C)NC(=O)OCc1ccccc1)OC`, the IC50 in the experiment on Human adenovirus 2 [1] worked out at 400 µM. In the experiment on Human adenovirus 2 [2], this compound had an Inhibition of 59%. In the experiment on Human adenovirus 2 [3], this compound had a Ki of 380 µM.
Compound `COC(CNC(=O)CNC(=O)[C@H](C)NC(=O)[C@H](CC(C)C)NC(=O)OC(C)(C)C)OC` showed an IC50 in the experiment on Human adenovirus 2 [1] of 1800 µM. The same compound came in with an Inhibition with Human adenovirus 2 [2] of 59%.
Take `C[C@H](NC(=O)C(F)(F)F)C(=O)NCC(=O)NCC#N`: the Inhibition with Human adenovirus 2 [2] was 5%.
In the case of `N#CCNC(=O)CNC(=O)C(F)(F)F`, in the experiment on Human adenovirus 2 [4], the Inhibition worked out at 0%.
The same measure, in the same setting: the figure for `Cl.N#CCN` is 0%.
For `CC(C)C[C@H](NC(=O)OC(C)(C)C)C(=O)N[C@@H](C)C(=O)NCC(=O)NCC(=O)OC(C)(C)C` (Boc-LAGG-OtBu), in the experiment on Human adenovirus 2 [2], the Inhibition is 40%.
Turning to `CC(C)C[C@H](NC(=O)OCc1ccccc1)C(=O)N[C@@H](C)C(=O)NCC(=O)NCC(N)=O` (Cbz-LAGG-NH2), the Inhibition with Human adenovirus 2 [5] was determined as 0%.
The same measure, in the same setting: in the case of `CNC(=O)CNC(=O)CNC(=O)[C@H](C)NC(=O)[C@H](CC(C)C)NC(=O)OCc1ccccc1` (Cbz-LAGG-NHMe) it was 0%.
Compound `CC(C)C[C@H](NC(=O)OCc1ccccc1)C(=O)N[C@@H](C)C(=O)NCC(=O)NCC(=O)N(C)C` (Cbz-LAGG-NMe2) displayed an Inhibition with Human adenovirus 2 [4] of 0%.
Compound `CCN(C)C(=O)CNC(=O)CNC(=O)[C@H](C)NC(=O)[C@H](CC(C)C)NC(=O)OCc1ccccc1` (Cbz-LAGG-NMeEt) displayed an Inhibition in the experiment with Human adenovirus 2 [4] of 0%.
For the compound `CCOC(=O)CNC(=O)CNC(=O)[C@H](C)NC(=O)[C@H](CC(C)C)NC(=O)OCc1ccccc1` (Cbz-LAGG-OEt), the Inhibition in the experiment with Human adenovirus 2 [2] was determined as 67%.
In the case of `CC(C)C[C@H](NC(=O)OCc1ccccc1)C(=O)N[C@@H](C)C(=O)NCC(=O)NCC(=O)O` (Cbz-LAGG-OH), the Inhibition in the experiment on Human adenovirus 2 [6] is reported as 0%.
`COC(=O)CNC(=O)CNC(=O)[C@H](C)NC(=O)[C@H](CC(C)C)NC(=O)OCc1ccccc1` (Cbz-LAGG-OMe) returned an Inhibition in the experiment on Human adenovirus 2 [2] of 72%.
As for `CON(C)C(=O)CNC(=O)CNC(=O)[C@H](C)NC(=O)[C@H](CC(C)C)NC(=O)OCc1ccccc1` (Cbz-LAGG-{N(Me)OMe}), the Inhibition with Human adenovirus 2 [4] is given as 0%.
`CC(C)C[C@H](N)C(=O)N[C@@H](C)C(=O)NCC(=O)NCC(N)=O` (H-LAGG-NH2) gave an Inhibition in the experiment on Human adenovirus 2 [4] of 0%.
Still for that read-out and setting: in the case of `CNC(=O)CNC(=O)CNC(=O)[C@H](C)NC(=O)[C@@H](N)CC(C)C` (H-LAGG-NHMe) it was 0%.
